“And” between values parts separate entries of the source, which are not always exact repeats. Equal entries are not always repeated. Inconclusive results and toxic doses are left out.
System: L1210 leukemia ip in BDF1 mice, survival T/C
Test: NCI In Vivo Anticancer Drug Screen. Data for tumor model L1210 Leukemia (intraperitoneal) in B6D2F1 (BDF1) mice
Settings: endpoint: mean survival time, higher = longer survival
Method in brief: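 In this screen, tumor-bearing mice given compound are compared to those given vehicle, and their survival values are reported as a treated-to-control quotient.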

[1] = dose: 100.0 mg/kg/injection, schedule: Q04DX003 (ip), vehicle: Klucel (hydroxypropylcellulose) (HPC)
[2] = dose: 200.0 mg/kg/injection, schedule: Q04DX003 (ip), vehicle: Klucel (hydroxypropylcellulose) (HPC)
[3] = dose: 400.0 mg/kg/injection, schedule: Q04DX003 (ip), vehicle: Klucel (hydroxypropylcellulose) (HPC)
[4] = dose: 100.0 mg/kg/injection, schedule: Q01DX009 (ip), vehicle: Klucel (hydroxypropylcellulose) (HPC)
[5] = dose: 200.0 mg/kg/injection, schedule: Q01DX009 (ip), vehicle: Klucel (hydroxypropylcellulose) (HPC)
[6] = dose: 100.0 mg/kg/injection, schedule: Q04DX002 (ip), vehicle: Klucel (hydroxypropylcellulose) (HPC)
[7] = dose: 100.0 mg/kg/injection, schedule: Q04DX003 (ip), vehicle: saline with Tween-80
[8] = dose: 200.0 mg/kg/injection, schedule: Q04DX002 (ip), vehicle: Klucel (hydroxypropylcellulose) (HPC)
[9] = dose: 200.0 mg/kg/injection, schedule: Q04DX003 (ip), vehicle: saline with Tween-80
[10] = dose: 400.0 mg/kg/injection, schedule: Q04DX002 (ip), vehicle: Klucel (hydroxypropylcellulose) (HPC)
[11] = dose: 100.0 mg/kg/injection, schedule: Q01DX009 (ip), vehicle: carboxymethylcellulose (CMC)
[12] = dose: 100.0 mg/kg/injection, schedule: Q04DX002 (ip), vehicle: carboxymethylcellulose (CMC)
[13] = dose: 100.0 mg/kg/injection, schedule: Q04DX003 (ip), vehicle: carboxymethylcellulose (CMC)
[14] = dose: 200.0 mg/kg/injection, schedule: Q01DX009 (ip), vehicle: carboxymethylcellulose (CMC)
[15] = dose: 200.0 mg/kg/injection, schedule: Q04DX002 (ip), vehicle: carboxymethylcellulose (CMC)
[16] = dose: 200.0 mg/kg/injection, schedule: Q04DX003 (ip), vehicle: carboxymethylcellulose (CMC)
[17] = dose: 400.0 mg/kg/injection, schedule: Q04DX002 (ip), vehicle: carboxymethylcellulose (CMC)
[18] = dose: 400.0 mg/kg/injection, schedule: Q04DX003 (ip), vehicle: carboxymethylcellulose (CMC)

CCCCCC1SC1CC1SC1CCCCCCCC(=O)NCCCOCCOCCOCC (configuration not stated)
T/C (dose: 100.0 mg/kg/injection, schedule: Q01DX009 (ip), vehicle: saline with Tween-80): 121 % of control | T/C (dose: 200.0 mg/kg/injection, schedule: Q01DX009 (ip), vehicle: saline with Tween-80): 104 % of control

O=C(N/N=C/c1ccc2c(c1)CCC2)c1ccccc1N=Cc1ccc2c(c1)CCC2
T/C [1]: 86 % of control | T/C [2]: 96 % of control | T/C [3]: 92 % of control

CCCCCCCC[n+]1ccc(C#N)cc1
T/C (dose: 18.8 mg/kg/injection, schedule: Q04DX003 (ip), vehicle: saline): 97 % of control | T/C (dose: 37.5 mg/kg/injection, schedule: Q04DX003 (ip), vehicle: saline): 100 % of control | T/C (dose: 75.0 mg/kg/injection, schedule: Q01DX001 (ip), vehicle: saline): 96 % of control | T/C (dose: 75.0 mg/kg/injection, schedule: Q04DX003 (ip), vehicle: saline): 100 % of control

NC(=O)CC(NC(=O)OCc1ccccc1)C(=O)O (configuration not stated)
T/C (dose: 50.0 mg/kg/injection, schedule: Q01DX009 (ip), vehicle: Klucel (hydroxypropylcellulose) (HPC)): 95 % of control | T/C [4]: 95 % of control | T/C [5]: 109 % of control

Cc1n(CC(C)C)c2c([n+]1CC(=O)c1ccc([N+](=O)[O-])cc1)C(=O)c1ccccc1C2=O
T/C (dose: 5.0 mg/kg/injection, schedule: Q01DX001 (ip), vehicle: carboxymethylcellulose (CMC)): 93 % of control | T/C (dose: 10.0 mg/kg/injection, schedule: Q01DX001 (ip), vehicle: carboxymethylcellulose (CMC)): 86 % of control | T/C (dose: 20.0 mg/kg/injection, schedule: Q01DX001 (ip), vehicle: carboxymethylcellulose (CMC)): 97 % of control

C/C(=C\c1ccccc1Cl)[N+](=O)[O-]
T/C [4]: 95 % of control | T/C [1]: 100 % of control | T/C [5]: 93 % of control | T/C [2]: 96 % of control | T/C [3]: 105 % of control

Nc1ncnc2c1ncn2C1OCC(O)C1CO (configuration not stated)
T/C (dose: 50.0 mg/kg/injection, schedule: Q01DX001 (ip), vehicle: saline): 111 % of control | T/C (dose: 100.0 mg/kg/injection, schedule: Q01DX001 (ip), vehicle: saline): 109 % of control | T/C (dose: 200.0 mg/kg/injection, schedule: Q01DX001 (ip), vehicle: saline): 105 % of control

C(=C\SCc1ccccc1)/SCc1ccccc1
T/C [6]: 103 % of control | T/C [7]: 97 % of control | T/C [8]: 103 % of control | T/C [9]: 101 % of control | T/C [10]: 96 % of control | T/C (dose: 400.0 mg/kg/injection, schedule: Q04DX003 (ip), vehicle: saline with Tween-80): 102 % of control

NC(=O)Nc1ccc(C(=O)O)cc1
T/C (dose: 100.0 mg/kg/injection, schedule: Q01DX001 (ip), vehicle: Klucel (hydroxypropylcellulose) (HPC)): 95 % of control | T/C [1]: 100 % of control | T/C (dose: 200.0 mg/kg/injection, schedule: Q01DX001 (ip), vehicle: Klucel (hydroxypropylcellulose) (HPC)): 91 % of control | T/C [2]: 97 % of control | T/C (dose: 400.0 mg/kg/injection, schedule: Q01DX001 (ip), vehicle: Klucel (hydroxypropylcellulose) (HPC)): 98 % of control | T/C [3]: 98 % of control

Cc1nc(-c2ccc3ccc4cccnc4c3n2)no1
T/C (dose: 50.0 mg/kg/injection, schedule: Q04DX003 (ip), vehicle: saline with Tween-80): 93 % of control | T/C [9]: 86 % of control

COc1ccc(C(=O)NC2CCC2)cc1
T/C (dose: 25.0 mg/kg/injection, schedule: Q01DX009 (ip), vehicle: saline): 100 % of control | T/C (dose: 50.0 mg/kg/injection, schedule: Q01DX009 (ip), vehicle: saline): 108 % of control | T/C (dose: 100.0 mg/kg/injection, schedule: Q01DX009 (ip), vehicle: saline): 100 % of control

Brc1nnnn1-c1ccccc1
T/C [4]: 99 % of control | T/C [1]: 97 % of control | T/C [5]: 98 % of control | T/C [2]: 108 % of control | T/C (dose: 400.0 mg/kg/injection, schedule: Q01DX009 (ip), vehicle: Klucel (hydroxypropylcellulose) (HPC)): 96 % of control | T/C [3]: 94 % of control

O=[N+]([O-])c1ccc(N2CCOCC2)cc1
T/C [1]: 95 % of control | T/C [2]: 100 % of control | T/C [3]: 105 % of control

CS(=O)(=O)CCCl
T/C [11]: 102 % of control and 106 % of control | T/C [6]: 103 % of control | T/C [12]: 100 % of control and 109 % of control | T/C [13]: 107 % of control | T/C [14]: 98 % of control and 102 % of control | T/C [8]: 103 % of control | T/C [15]: 97 % of control and 98 % of control | T/C [16]: 98 % of control | T/C [10]: 103 % of control | T/C [17]: 102 % of control and 105 % of control | T/C [18]: 102 % of control

CCc1ccc(/C=C\c2ccc(O)c(O)c2)[n+](C)c1
T/C (dose: 15.0 mg/kg/injection, schedule: Q01DX001 (ip), vehicle: saline): 87 % of control | T/C (dose: 30.0 mg/kg/injection, schedule: Q01DX001 (ip), vehicle: saline): 89 % of control

COc1cccc(C[Si](C)C)c1
T/C [7]: 104 % of control | T/C [9]: 107 % of control

O=C(O)C12CCC(CO)(CC1)CC2
T/C (dose: 50.0 mg/kg/injection, schedule: Q01DX001 (ip), vehicle: saline with Tween-80): 103 % of control | T/C (dose: 100.0 mg/kg/injection, schedule: Q01DX001 (ip), vehicle: saline with Tween-80): 100 % of control | T/C (dose: 200.0 mg/kg/injection, schedule: Q01DX001 (ip), vehicle: saline with Tween-80): 92 % of control

ONc1nc(NO)c2[nH]cnc2n1
T/C (dose: 0.25 mg/kg/injection, schedule: Q01DX009 (ip), vehicle: other): 109 % of control | T/C (dose: 1.2 mg/kg/injection, schedule: Q01DX009 (ip), vehicle: carboxymethylcellulose (CMC)): 115 % of control | T/C (dose: 2.5 mg/kg/injection, schedule: Q01DX009 (ip), vehicle: other): 165 % of control | T/C (dose: 3.7 mg/kg/injection, schedule: Q01DX009 (ip), vehicle: carboxymethylcellulose (CMC)): 150 % of control | T/C (dose: 5.0 mg/kg/injection, schedule: Q01DX009 (ip), vehicle: other): 202 % of control | T/C (dose: 10.0 mg/kg/injection, schedule: Q01DX009 (ip), vehicle: other): 210 % of control | T/C (dose: 10.5 mg/kg/injection, schedule: Q01DX009 (ip), vehicle: other): 203 % of control | T/C (dose: 18.0 mg/kg/injection, schedule: Q01DX009 (ip), vehicle: other): 265 % of control | T/C (dose: 18.7 mg/kg/injection, schedule: Q01DX009 (oral), vehicle: carboxymethylcellulose (CMC)): 114 % of control | T/C (dose: 30.0 mg/kg/injection, schedule: Q01DX009 (ip), vehicle: carboxymethylcellulose (CMC)): 150 % of control | T/C (dose: 30.0 mg/kg/injection, schedule: Q01DX009 (ip), vehicle: other): 192 % of control | T/C (dose: 44.0 mg/kg/injection, schedule: Q01DX001 (ip), vehicle: carboxymethylcellulose (CMC)): 154 % of control | T/C (dose: 60.0 mg/kg/injection, schedule: Q01DX009 (ip), vehicle: carboxymethylcellulose (CMC)): 150 % of control and 153 % of control | T/C (dose: 66.0 mg/kg/injection, schedule: Q01DX001 (ip), vehicle: carboxymethylcellulose (CMC)): 172 % of control | T/C (dose: 75.0 mg/kg/injection, schedule: Q01DX009 (oral), vehicle: carboxymethylcellulose (CMC)): 122 % of control | T/C (dose: 100.0 mg/kg/injection, schedule: Q01DX001 (ip), vehicle: carboxymethylcellulose (CMC)): 175 % of control | T/C (dose: 150.0 mg/kg/injection, schedule: Q01DX001 (ip), vehicle: carboxymethylcellulose (CMC)): 214 % of control

C1COB(OCCNCCOB2OCCNCCO2)OCCN1
T/C [11]: 100 % of control | T/C [12]: 98 % of control and 101 % of control | T/C [13]: 100 % of control | T/C [14]: 97 % of control and 106 % of control | T/C [15]: 95 % of control and 103 % of control | T/C [16]: 104 % of control | T/C (dose: 400.0 mg/kg/injection, schedule: Q01DX009 (ip), vehicle: carboxymethylcellulose (CMC)): 100 % of control | T/C [17]: 103 % of control and 106 % of control | T/C [18]: 100 % of control

Cc1cc(C)c2nc(N)sc2c1
T/C [7]: 94 % of control

C[C@]12CC[C@H]3[C@@H](CCC4=CC(=O)CC[C@@]43C)[C@@H]1CC[C@@H]2OC(=O)Cc1ccc(N(CCCl)CCCl)cc1
T/C (dose: 100.0 mg/kg/injection, schedule: Q01DX001 (sc), vehicle: steriod suspending solution): 94 % of control | T/C (dose: 200.0 mg/kg/injection, schedule: Q01DX001 (sc), vehicle: steriod suspending solution): 96 % of control | T/C (dose: 400.0 mg/kg/injection, schedule: Q01DX001 (sc), vehicle: steriod suspending solution): 91 % of control

— PubChem BioAssay AID248 (DTP/NCI, 2004)
